The values that follow come from ChEMBL document CHEMBL6177963, “Development of acylhydrazone linked thiazoles as non-covalent dual inhibitors of SARS-CoV-2 proteases” (Eur J Med Chem, 2025).

The term Ki denotes the dissociation constant of the complex between target and ligand, obtained from inhibition or displacement. A word on the inhibition: it is the share of the control response that was lost under treatment.

Assay [1] in a line: Inhibition of recombinant SARS-CoV-2 MPro overexpressed in Escherichia coli assessed as inhibition constant using VNSTLQISGLRLys(Dabcyl) as substrate by FRET assay. On the set-up: species or system Severe acute respiratory syndrome coronavirus 2.
For assay [2], the system named is Severe acute respiratory syndrome coronavirus 2. The assay can be described thus: Inhibition of recombinant SARS-CoV-2 MPro overexpressed in Escherichia coli assessed as inhibition constant using VNSTLQISGLRLys(Dabcyl) as substrate at 10 uM by FRET assay relative to control.

Some results are limits rather than exact numbers.

As to `CCOC(=O)c1sc(NNC(=O)/C=C/c2ccccc2)nc1C`, in assay [1] (read-out: Ki), the Ki was 1.1 µM. In the case of `O=C(NNc1nc(-c2ccc(Cl)cc2)cs1)c1ccc(Br)cc1`, the Ki result in assay [1] is “Not_active”. The inhibition in assay [2] was less than 50%.

Turning to `O=C(NNc1nc(-c2ccc(Cl)cc2)cs1)c1ccc(Cl)cc1`, the Ki in assay [1] (read-out: Ki) was 13.4 µM. With `O=C(NNc1nc(-c2ccc(Br)cc2)cs1)c1ccc([N+](=O)[O-])cc1`, in assay [1], the Ki result was “Not_active”. In addition, the inhibition in assay [2] is less than 50%. In the case of `CCOC(=O)c1sc(NNC(=O)c2cccc(Cl)c2)nc1C`, the inhibitory constant (Ki) entry in assay [1] is listed as “Not_active”. Further, the inhibition in assay [2] is less than 50%. For `Cc1ccc(C(=O)NNc2nc(-c3ccc(Br)cc3)cs2)cc1` the same measures were “Not_active” and less than 50%. For `CCOC(=O)c1sc(NNC(=O)c2ccccc2)nc1C` the same measures were “Not_active” and less than 50%. For `Cc1ccc(C(=O)NNc2nc(-c3ccc(C)cc3)cs2)cc1` the same measures were “Not_active” and less than 50%.

Regarding `Cc1ccc(-c2csc(NNC(=O)c3ccc(F)cc3)n2)cc1`, the Ki in assay [1] (read-out: Ki) is 11.1 µM. On to `CCOC(=O)c1sc(NNC(=O)c2ccc(C)cc2)nc1C`, for which the Ki result in assay [1] is “Not_active”. Further, the inhibition in assay [2] is less than 50%. As for `O=c1c2ccccc2[se]n1-c1ccccc1` [EBSELEN], the Ki in assay [1] (read-out: Ki) was 0.486 µM. Still for that read-out and setting: next, `CCOC(=O)c1sc(NNC(=O)c2cccs2)nc1C`: 2.4 µM. Still for that read-out and setting: next, `CCOC(=O)c1sc(NNC(=O)c2ccc(Br)cc2)nc1C`: 4.58 µM. For the compound `CCOC(=O)c1sc(NNC(=O)c2ccco2)nc1C`, the Ki result in assay [1] is given as “Not_active”. Further, in assay [2], the inhibition was less than 50%. Regarding `O=C(NNc1nc(-c2ccc(Br)cc2)cs1)c1ccc(F)cc1`, the Ki in assay [1] (read-out: Ki) came out at 4.28 µM. As to `O=C(NNc1nc(-c2ccc(Br)cc2)cs1)c1ccccc1`, in assay [1], the Ki entry is “Not_active”. Further, the inhibition in assay [2] is less than 50%.

Consider `CCOC(=O)c1sc(NNC(=O)c2cccc(Br)c2)nc1C`, for which, in assay [1], the Ki entry is on record as “Not_active”. Also, the inhibition in assay [2] is less than 50%.

Consider `COC(=O)c1sc(NNC(=O)c2ccc([N+](=O)[O-])cc2)nc1C`, for which, in assay [1], the Ki result is given as “Not_active”. Also, the inhibition in assay [2] was less than 50%. On to `Cc1ccc(-c2csc(NNC(=O)c3ccc(Br)cc3)n2)cc1`, for which the Ki entry in assay [1] was “Not_active”. In addition, in assay [2], the inhibition was less than 50%. As for `O=C(NNc1nc(-c2ccc(Cl)cc2)cs1)c1ccc(F)cc1`, the Ki in assay [1] (read-out: Ki) came to 10.6 µM.

With `CCOC(=O)c1sc(NNC(=O)c2ccccc2C)nc1C`, in assay [1], the Ki result was “Not_active”. Besides, the inhibition in assay [2] is less than 50%. On to `CCOC(=O)c1sc(N/N=C/c2cc3ccccc3nc2Cl)nc1C`, for which the Ki entry in assay [1] is “Not_active”.

For the compound `CCOC(=O)c1sc(NNC(=O)c2ccc(F)cc2)nc1C`, the Ki entry in assay [1] was “Not_active”. The inhibition in assay [2] was less than 50%. For `Clc1nc2ccccc2cc1/C=N/Nc1nc(-c2ccccc2)cs1` the same measures were “Not_active” and less than 50%.

Regarding `Oc1ccc(/C=N/Nc2nc(-c3ccc(Cl)cc3)cs2)cc1`, the Ki in assay [1] (read-out: Ki) was determined as 18.8 µM. For `CCOC(=O)c1sc(NNC(=O)c2ccc3ccccc3c2)nc1C`, the Ki entry in assay [1] is listed as “Not_active”. The inhibition in assay [2] is less than 50%.

In the case of `Cc1ccc(-c2csc(NNC(=O)c3ccc([N+](=O)[O-])cc3)n2)cc1`, in assay [1] (read-out: Ki), the Ki was determined as 44.7 µM.

Take `CCOC(=O)c1sc(NNC(=O)c2ccccc2OC)nc1C`: in assay [1], the Ki entry was “Not_active”. The inhibition in assay [2] is less than 50%. On to `O=C(NNc1nc(-c2ccc(Br)cc2)cs1)c1ccc(Cl)cc1`, for which the Ki result in assay [1] is recorded as “Not_active”. Besides, the inhibition in assay [2] was less than 50%. For `O=C(NNc1ncc(-c2ccc(Cl)cc2)s1)c1ccc2ccccc2c1`, in that order: “Not_active” and less than 50%.

Take `CCOC(=O)c1sc(NNC(=O)c2ccc([N+](=O)[O-])cc2)nc1C`: the Ki in assay [1] (read-out: Ki) was found to be 0.73 µM. On to `Cc1ccc(-c2csc(NNC(=O)c3ccc(Cl)cc3)n2)cc1`, for which the Ki entry in assay [1] is listed as “Not_active”. In addition, in assay [2], the inhibition was less than 50%.

On to `O=C(NNc1ncc(-c2ccc(Cl)cc2)s1)c1cccc(Cl)c1`, for which the inhibitory constant (Ki) result in assay [1] is listed as “Not_active”. Besides, the inhibition in assay [2] is less than 50%.

For `CCOC(=O)c1sc(NNC(=O)c2ccc(Cl)cc2)nc1C`, in assay [1] (read-out: Ki), the Ki came to 14.9 µM. Turning to `O=C(NNc1nc(-c2ccc(Br)cc2)cs1)c1ccc(Br)cc1`, the Ki entry in assay [1] is “Not_active”. Besides, in assay [2], the inhibition was less than 50%. As to `Cc1ccc(C(=O)NNc2nc(-c3ccc(Cl)cc3)cs2)cc1`, the Ki in assay [1] (read-out: Ki) was 9.37 µM.
